The subject of experiment [1] is P-Tyr-100 antiphosphotyrosine monoclonal antibody. The experiment can be described thus: Ligand analog screening: fluorescence intensity and polarization vs P-Tyr-100 antibody concentration (Examples 22, 24). It is filed as binding, mouse. To be noted: for Fmax/Fmin: ratio of fluorescence intensity at lowest (Fmax) to highest (Fmin) antibody concentration, 50 nM ligand analog, P-Tyr-100 0.8 to 500 nM, ex/em 480/535 nm. As to the method:
Solutions of test compounds (100 nM) were prepared were prepared in 50 mM Tris-HCl pH 7.5, 10 mM MgCl2, 0.01% Brij-35, 500 μM ATP, 2 mM DTT, 1 mM EGTA. 20 μl aliquots of these solutions were pipetted into the wells of a 384-well microplate. 20 μl aliquots of a serially-diluted […] stock solution of P-Tyr-100 antiphosphotyrosine monoclonal antibody (Cell Signaling Technology, Beverly, Mass.) were added to the wells. The resulting samples contained 50 nM of each ligand analog (Compounds 15, 7, 8, 9, 18 and 19) and antibody concentrations ranging from 0.8 to 500 nM. Fluorescence polarization and intensity of the samples was measured on an EnVision microplate reader (PerkinElmer Life Sciences) using excitation/emission filter settings of 480/535 nm. Increasing fluorescence polarization as a function of antibody concentration (A) provides confirmation of ligand analog binding to the antibody. […] Phosphotyrosine peptide, target ligand, (phospho-pp60 c-src (521-533); TSTEPQY*QPGENL, Bachem California, Inc. Torrance, Calif.) was then added to all samples at a concentration of 10 μM and the fluorescence intensity and polarization measurements were repeated (C, D). […] Displacement of the ligand analogs from antibody is confirmed by depolarization of fluorescence (D compared to A). […] See, FIG. 14.
Compound 12 and Compound 13 were assessed for efficacy using the methods described in Example 22. […] Samples containing 100 nM of Compound 13 and additional components identified in the figure legend were prepared in 50 mM Tris-HCl pH 7.5, 10 mM MgCl2, 0.01% Brij-35, 100 μM ATP, 2 mM DTT, 1 mM EGTA. 100 μL volumes of these samples were transferred to microcuvettes. The fluorescence emission spectrum was recorded for each sample using a Hitachi F-4500 spectrofluorometer (excitation wavelength=520 nm). See, FIG. 15

In experiment [2] the test system is Compound 15+P-Tyr-100 complex. The experiment can be described thus: Displacement of phosphotyramide ligand analog by phosphotyrosine peptide but not by ATP (Example 17). It is filed as binding, mouse. Particulars: zero to 1 mM ATP. As to the method:
A 5 mM solution of Compound 15 was prepared in water. Separate reactions of 100 nM Compound 15+/−100 nM P-Tyr-100 (Cell Signaling Technology, catalog # 9411) complexes were made in kinase buffer with various amounts of ATP (50 mM Tris, pH 7.5, 10 mM MgCl2, 1 mM EGTA, 0.01% Brij 35, 2 mM DTT, with zero, 0.1, 0.25, 0.5, or 1 mM ATP). The fluorescence emission of each of the ten solutions was measured using a Hitachi F-4500 spectrofluorometer (Ex 450, Em 510, slit width 5 nm for both wavelengths, PMT gain 700 V). After the initial read, 10 μM phospho-pp60 c-src (10 μM final concentration) peptide (521-533) (TSTEPQY*QPGENL) (Bachem, catalog # H-3258) in kinase buffer was added to the antibody:ligand reactions, and the resulting fluorescence intensity was measured on the same instrument at the same settings.

Experiment [3] has as its system Rabbit anti-Akt polyclonal antibody. The experiment can be described thus: Binding of ethanolamine phosphate ligand analog by anti-Akt antibody (Example 10). To be noted: 50 nM compound, antibody zero to 250 nM. As to the method: A 5 mM solution of BODIPY FL ethanolamine phosphate Compound 2 was made in water. A 2.5 mM solution of BODIPY FL ethanolamine (Compound 1) was made in 50% (v/v) DMSO, See Example 1. Rabbit anti-Akt polyclonal antibody (Cell Signaling Technology, catalog # 9611) was serially diluted in 5 μl 50 mM Tris buffer, pH 7.5 in a black, 384-well flat-bottom Packard ProxiPlate preblocked with 0.25% (v/v) Mowiol. After the antibody was serially diluted in the plate, 5 μl of either Compound 2 or Compound 1 was added to the same wells. The final concentration of both compounds in the wells was each 50 nM. The final antibody concentration in the wells was zero to 250 nM. The fluorescence intensity was measured on an EnVision microplate reader (Perkin Elmer), PMT 1 gain 155, PMT 2 gain 191, excitation light 76%, 100 flashes at 9 mM height.

In the case of 6-FITC phosphotyramide [Compound 19], the Fmax/Fmin in experiment [1] came to 1.6. For the molecule `Nc1ncnc2c1ncn2[C@@H]1O[C@H](COP(=O)(O)OP(=O)(O)OP(=O)(O)O)[C@@H](O)[C@H]1O` [ATP], the “displacement of the phosphotyramide ligand analog” value in experiment [2] is on record as “does not displace”. As for `O=C(CSc1c(F)c(F)c(C(=O)O)c(-c2c3cc(F)c(=O)cc-3oc3cc(O)c(F)cc23)c1F)NCCc1ccc(OP(=O)(O)O)cc1` [Compound 7, Oregon Green 514 phosphotyramide], in experiment [1], the Fmax/Fmin is recorded as 4.0. For the molecule `O=C(NCCc1ccc(OP(=O)(O)O)cc1)c1ccc(-c2c3ccc(=O)cc-3oc3cc(O)ccc23)c(C(=O)O)c1` [Compound 8, 5-FAM phosphotyramide], in experiment [1] (fluorescence intensity readout), the “performance in displacement assay, 6-position vs 5-position” value is recorded as “superior performance”. The Fmax/Fmin in experiment [1] is listed as 1.3. Turning to `O=C(NCCc1ccc(OP(=O)(O)O)cc1)c1ccc(C(=O)O)c(-c2c3ccc(=O)cc-3oc3cc(O)ccc23)c1` [Compound 9, 6-FAM phosphotyramide], in experiment [1] (compared to Compound 8), the “binding affinity for the antibody, 6-isomer compared to 5-isomer” value is on record as “increased binding affinity” and the “quenching by the antibody, 6-isomer compared to 5-isomer” value is “increased quenching”. Further, the Fmax/Fmin in experiment [1] is given as 3.2.

Take `CN(C)c1ccc2c(-c3cc(C(=O)NCCc4ccc(OP(=O)([O-])O)cc4)ccc3C(=O)O)c3ccc(=[N+](C)C)cc-3oc2c1` [Compound 12]: in experiment [1] (methods of Example 22), the “fluorescence intensity change on antibody binding” value is on record as “little or no analytically useful fluorescence intensity change” and the “fluorescence polarization change on antibody binding” value is listed as “large fluorescence polarization changes”. `O=C(O)c1cc(NC(=S)NCCc2ccc(OP(=O)(O)O)cc2)ccc1-c1c2ccc(=O)cc-2oc2cc(O)ccc12` [Compound 18, 5-FITC phosphotyramide]: the Fmax/Fmin in experiment [1] is 1.7. Consider “BODIPY FL ethanolamine phosphate [Compound 2]”, for which, in experiment [3], the “quenching of ligand analog when bound by the antibody” value is recorded as “slightly quenched”.
